This is an account of results in US8895564B2, “Biguanide derivative compound” (Nihon University, priority 2010, dated 2014).

For one data set, the target named is T1, ASIC1a (Homo sapiens, UniProt P78348).
T1 construct: expressed in transfected cells; host or cells: Xenopus laevis oocytes injected with capped cRNA
T1 sequence (P78348 1-528): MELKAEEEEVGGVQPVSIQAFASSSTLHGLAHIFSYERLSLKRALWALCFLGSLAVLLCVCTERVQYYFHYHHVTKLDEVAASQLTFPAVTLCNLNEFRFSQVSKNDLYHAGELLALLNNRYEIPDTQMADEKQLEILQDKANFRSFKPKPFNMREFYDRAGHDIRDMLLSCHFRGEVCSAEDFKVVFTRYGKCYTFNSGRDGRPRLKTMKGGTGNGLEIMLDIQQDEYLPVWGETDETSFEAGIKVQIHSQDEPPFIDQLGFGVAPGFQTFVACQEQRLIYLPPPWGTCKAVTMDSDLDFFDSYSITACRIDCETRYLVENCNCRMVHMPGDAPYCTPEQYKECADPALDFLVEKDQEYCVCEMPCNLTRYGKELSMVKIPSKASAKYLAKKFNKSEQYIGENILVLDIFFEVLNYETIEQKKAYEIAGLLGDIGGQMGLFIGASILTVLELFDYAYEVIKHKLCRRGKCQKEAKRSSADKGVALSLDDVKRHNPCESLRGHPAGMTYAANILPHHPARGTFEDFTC
As to the kind of experiment: Inhibition of ASIC1a current in ASIC1a-expressing Xenopus laevis oocytes, two-electrode voltage clamp method. Particulars: current induced by shifting pH from 7.5 to 6.0; four to five oocytes. The class given is cell-based. As to the method: (1) Preparation of the ASIC1a-expressing Xenopus laevis oocytes
Using the RNeasy Protect Mini Kit (QIAGEN), total RNA was prepared from HEK293 cells. Subsequently, using the High Fidelity RNA PCR kit (TAKARA BIO INC.), first strand cDNA was synthesized, and using this first strand cDNA as a template, PCR was performed. The sense-strand primer for PCR was: […] (SEQ ID NO: 1) and the antisense-strand primer for PCR was: […] (SEQ ID NO: 2), and the PCR conditions were such that one cycle consisting of 95° C. for 30 seconds, 55° C. for 30 seconds, and 72° C. for 90 seconds was repeated 30 cycles. The PCR product was inserted into the PCR2.1 vector, and the resulting vector was further subcloned into the pcDNA3.1 (−) vector. From the ASIC1a plasmid which was linearized by the BamHI enzyme, capped cRNA was synthesized using the mMessage mMachine Kits (Ambion).
On the technique in general: Two-electrode voltage clamp is typically applied to oocytes expressing channels or transporters.

Data set [1] in a line: Cytotoxic test, alamar blue assay. The class given is cell-based. Particulars: human, undifferentiated SH-SY5Y neuroblastoma cells, 24 hours exposure, concentration at which respiratory activity decreased to 50%, read-out: IC50 Cytotoxicity. As to the method:
Using SH-SY5Y, a cytotoxic test was performed. In this test also, memantine and amiloride were used as control compounds.
The SH-SY5Y neuroblastoma cell line was purchased from American Type Culture Collection. The cells were cultured in the medium containing penicillin (100 U/mL), streptomycin (100 U/mL), and inactivated fetal bovine serum (Gibco). The cells were maintained in a CO2 incubator at 37° C. under the conditions of 95% air and 5% CO2.
Undifferentiated SH-SY5Y cells were exposed to various concentrations of Compounds 1, 2, and 3 for 24 hours. The alamar blue stock solution was transferred to a 96-well plate so that the final assay volume was 100 μL/well with a final alamar blue concentration of 10%. Six hours later, reduced alamar blue was measured at a wavelength of 570 nm. As to the survival rate (%), assuming that the mitochondrial respiratory activity in the drug-free cells as 100%, the respiratory activity of the cells exposed to Compounds 1, 2, and 3 for 24 hours was expressed as relative values.
For orientation: The colour change of resazurin is a common sign of viable cells or microbes.

The target of the next data set is NR1/NR2A (Rattus norvegicus, UniProt P35439+Q00959). Nature of the data set: Inhibition of NMDA receptor NR1/NR2A activity in Xenopus laevis oocytes, two-electrode voltage clamp method.
Sequence of NR1/NR2A (Q00959 23-1464, other chains not shown): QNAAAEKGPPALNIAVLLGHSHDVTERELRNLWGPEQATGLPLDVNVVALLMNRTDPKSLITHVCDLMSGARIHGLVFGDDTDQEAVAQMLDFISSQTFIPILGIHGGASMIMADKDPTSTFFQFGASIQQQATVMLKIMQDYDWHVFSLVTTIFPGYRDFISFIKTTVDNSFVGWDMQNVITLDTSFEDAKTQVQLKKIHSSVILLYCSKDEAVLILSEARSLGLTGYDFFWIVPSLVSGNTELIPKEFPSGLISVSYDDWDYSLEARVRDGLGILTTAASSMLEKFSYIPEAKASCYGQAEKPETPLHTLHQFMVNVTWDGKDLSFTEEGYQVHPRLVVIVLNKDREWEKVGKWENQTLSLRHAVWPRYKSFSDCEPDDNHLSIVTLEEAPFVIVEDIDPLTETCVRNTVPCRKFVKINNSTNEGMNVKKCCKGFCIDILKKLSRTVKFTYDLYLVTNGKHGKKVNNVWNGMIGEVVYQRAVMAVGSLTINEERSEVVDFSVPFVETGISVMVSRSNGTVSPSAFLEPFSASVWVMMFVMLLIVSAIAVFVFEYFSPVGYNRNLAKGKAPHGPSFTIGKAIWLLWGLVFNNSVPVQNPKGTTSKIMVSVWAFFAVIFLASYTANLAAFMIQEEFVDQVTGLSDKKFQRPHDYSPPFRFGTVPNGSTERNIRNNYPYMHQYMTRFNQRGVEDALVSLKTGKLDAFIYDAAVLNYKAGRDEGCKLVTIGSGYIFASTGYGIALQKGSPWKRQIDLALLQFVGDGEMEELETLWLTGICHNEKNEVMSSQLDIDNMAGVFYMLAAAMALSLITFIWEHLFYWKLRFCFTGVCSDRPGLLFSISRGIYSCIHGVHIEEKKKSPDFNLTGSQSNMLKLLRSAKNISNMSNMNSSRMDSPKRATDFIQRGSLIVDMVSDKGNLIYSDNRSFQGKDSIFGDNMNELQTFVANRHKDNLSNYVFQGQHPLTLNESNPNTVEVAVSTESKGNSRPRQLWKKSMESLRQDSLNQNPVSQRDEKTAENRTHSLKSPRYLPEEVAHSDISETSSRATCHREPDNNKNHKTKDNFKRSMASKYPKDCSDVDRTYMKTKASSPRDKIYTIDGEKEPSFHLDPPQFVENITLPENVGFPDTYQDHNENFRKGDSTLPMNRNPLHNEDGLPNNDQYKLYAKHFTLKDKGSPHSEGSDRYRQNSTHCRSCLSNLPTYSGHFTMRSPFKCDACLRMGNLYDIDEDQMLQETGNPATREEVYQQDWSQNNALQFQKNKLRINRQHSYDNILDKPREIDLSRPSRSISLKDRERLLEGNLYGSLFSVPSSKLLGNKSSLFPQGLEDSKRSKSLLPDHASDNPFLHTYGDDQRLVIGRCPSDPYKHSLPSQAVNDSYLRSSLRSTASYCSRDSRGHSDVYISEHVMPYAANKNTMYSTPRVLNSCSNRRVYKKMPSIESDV

Procedure for NR1/NR2A: The effect of the compound of the present invention on NMDA receptors was measured by the two-electrode voltage clamp method.
(1) Preparation of the NMDA receptor-expressing Xenopus laevis oocytes
Into the oocytes, cRNA of the NR1 subunit and cRNA of the NR2 subunit of the NMDA receptor were injected at a ratio of 1:5 (0.1 to 4 ng of NR1 and 0.5 to 20 ng of NR2), whereby the oocytes expressing NMDA receptors were obtained.
(2) The oocytes thus obtained were cultured in the medium (96 mM NaCl, 2 mM KCl, 1 mM MgCl2, 1.8 mM CaCl2, 5 mM Na-HEPES, 2.5 mM sodium pyruvate, 50 mg/mL gentamicin, pH=7.5) at 19° C. for 1 to 3 days.
On the day of measurement, after injecting K^+-BAPTA into the oocytes, the activity of the receptor was measured by the two-electrode voltage clamp method to be described later using a recording buffer (96 mM NaCl, 2 mM KCl, 1.8 mM BaCl2, 10 mM Na-HEPES, pH=7.5).
Among them, because NR1/NR2A is considered to be most prevalently expressed in the brain, the inhibitory effect on the activity of NR1/NR2A was measured in the following tests.
(3) Two-electrode voltage clamp method
Using the two-electrode voltage clamp amplifier CEZ-1250 (NIHON KOHDEN CORPORATION), the electric current which has passed through the entire oocyte membrane was measured. Electrodes were filled with 3M potassium chloride and the resistance was set at 0.4 to 4 MΩ. Also, for measurement, glutamic acid and glycine were added as the NMDA receptor agonists.
(4) To the oocytes obtained by the aforementioned method, various concentrations of compounds were added. Setting the voltage clamp at Vh=−70 mV (resting membrane potential), the inhibitory effect on the activity of NR1/NR2A was measured.
The values obtained from four to five oocytes were averaged out and the resulting value ±S.E.M. was obtained as the measurement value.

Turning to `CC12CC3CC(C)(C1)CC(N)(C3)C2` [Memantine, reference compound], on ASIC1a, the “IC50 ASIC1a” value is listed as “no effect”. For the same molecule, in data set [1], the IC50 (usually the point on the concentration scale where inhibition reaches its midpoint) at 24 h is 146 µM.
As for `N=C(NCCc1ccccc1)NC(=N)NNC(=O)c1nc(Cl)c(N)nc1N` [Compound 1], the values for the IC50 on ASIC1a and on NR1/NR2A were 4.7 µM and 3.5 µM, respectively. Moreover, the IC50 at 24 h in data set [1] came out at 2680 µM.
Taken in the same sequence, the figures for `N=C(NCCc1ccc(Cl)c(Cl)c1)NC(=N)NNC(=O)c1nc(Cl)c(N)nc1N` [Compound 3] were 0.21 µM, 0.3 µM and 277 µM.
For the molecule `N=C(N)NC(=O)c1nc(Cl)c(N)nc1N` [Amiloride, reference compound], the concentration for half-maximal inhibition (IC50) at 24 h in data set [1] came to 563 µM. The molecule also had an IC50 against NR1/NR2A of 117 µM.
With `N=C(NCCc1ccc(Cl)cc1)NC(=N)NNC(=O)c1nc(Cl)c(N)nc1N` [Compound 2, 1-(3,5-diamino-6-chloropyrazinamide)-5-[2-(4-chlorophenyl)ethyl]biguanide], the half-inhibitory concentration (IC50) at ASIC1a was found to be 0.49 µM; against NR1/NR2A, 0.23 µM. The IC50 at 24 h in data set [1] came to 978 µM.
